The nature of data set [1]: Cytotoxicity against HEK293 cells assessed as inhibition of cell growth incubated for 48 hrs by MTT assay. The following applies: human. The format is toxicity, cell-based. (Formazan colour is commonly taken as a measure of viable cells.)
The subject of another data set is SK-MEL-28. Description: Cytotoxicity against human SK-MEL-28 cells assessed as inhibition of cell growth incubated for 48 hrs by MTT assay. As to conditions: SK-MEL-28, 48 h. The format is functional, cell-based.
The subject of a further data set is HepG2. Description: Cytotoxicity against human HepG2 cells assessed as inhibition of cell growth incubated for 48 hrs by MTT assay. The class given is functional, cell-based. The following applies: HepG2, 48 h.
The subject of a further data set is A549. As to the kind of experiment: Cytotoxicity against human A549 cells assessed as inhibition of cell growth incubated for 48 hrs by MTT assay. The following applies: A549, 48 h. The class given is functional, cell-based.
For a further data set, the system named is MCF7. As to the kind of experiment: Cytotoxicity against human MCF7 cells assessed as inhibition of cell growth incubated for 48 hrs by MTT assay. As to conditions: MCF7, 48 h. The format is functional, cell-based.
Another data set has as its system HCT-116. Description: Cytotoxicity against human HCT-116 cells assessed as inhibition of cell growth incubated for 48 hrs by MTT assay. The format is functional, cell-based. The following applies: HCT-116, 48 h.

For 20 molecules, IC50 results are on record in ChEMBL document CHEMBL5576084, “Development of chromone-thiazolidine-2,4-dione Knoevenagel conjugates as apoptosis inducing agents” (Bioorg Med Chem Lett, 2024).

As usually defined, the IC50 is the concentration needed to halve the response being measured.

Some results are limits rather than exact numbers.

As for `O=C(CN1C(=O)S/C(=C\c2coc3cc(F)ccc3c2=O)C1=O)c1ccc(Cl)cc1`, the IC50 at 48 h in data set [1] was found to be 13.4 µM. Besides, the IC50 in the data set with SK-MEL-28, in the data set with HepG2, in the data set with A549, in the data set with MCF7 and in the data set with HCT-116 was more than 10 µM each time.
On to `O=C(CN1C(=O)S/C(=C\c2coc3ccccc3c2=O)C1=O)c1ccc(F)cc1`, for which the concentration for half-maximal inhibition (IC50) at 48 h in data set [1] amounted to 15.5 µM. Further, the IC50 is more than 10 µM in the data set with SK-MEL-28; more than 10 µM in the data set on HepG2; 8.2 µM with A549; more than 10 µM in the data set on MCF7; more than 10 µM with HCT-116.
Regarding `Cc1ccc(C(=O)CN2C(=O)S/C(=C\c3coc4cc(F)ccc4c3=O)C2=O)cc1`, the IC50 at 48 h in data set [1] was 16.6 µM. In addition, the half-maximal inhibitory concentration (IC50) in the data set on SK-MEL-28, in the data set on HepG2, in the data set on A549, in the data set on MCF7 and in the data set with HCT-116 was more than 10 µM throughout.
Consider `O=C(CN1C(=O)S/C(=C\c2coc3ccccc3c2=O)C1=O)c1ccc(Cl)c(Cl)c1`, for which the IC50 at 48 h in data set [1] is 19.6 µM. In addition, the IC50 is more than 10 µM in the data set on SK-MEL-28; more than 10 µM with HepG2; more than 10 µM in the data set with A549; 9.1 µM in the data set with MCF7; more than 10 µM in the data set with HCT-116.
On to `N#Cc1ccc(C(=O)CN2C(=O)S/C(=C\c3coc4ccccc4c3=O)C2=O)cc1`, for which, in data set [1], the IC50 at 48 h came out at 27.8 µM. In addition, the IC50 in the data set on SK-MEL-28 is more than 10 µM; in the data set on HepG2 it was more than 10 µM; in the data set with A549, 8.8 µM; in the data set on MCF7, more than 10 µM; in the data set with HCT-116, more than 10 µM.
Consider `Cc1ccc2occ(/C=C3\SC(=O)N(CC(=O)c4ccc(Br)cc4)C3=O)c(=O)c2c1`, for which the IC50 at 48 h in data set [1] amounted to 16.5 µM. The IC50 with SK-MEL-28 was 9.1 µM; in the data set with HepG2, more than 10 µM; in the data set with A549, more than 10 µM; with MCF7, more than 10 µM; with HCT-116 it was more than 10 µM.
As to `Cc1ccc(C(=O)CN2C(=O)S/C(=C\c3coc4ccccc4c3=O)C2=O)cc1`, in data set [1], the IC50 at 48 h was 28.2 µM. Besides, the concentration for half-maximal inhibition (IC50) with SK-MEL-28 was more than 10 µM; in the data set with HepG2, more than 10 µM; with A549, 8.7 µM; with MCF7, more than 10 µM; with HCT-116, more than 10 µM.
Regarding `O=C(CN1C(=O)S/C(=C\c2coc3ccccc3c2=O)C1=O)c1ccc(Br)cc1`, the IC50 at 48 h in data set [1] turned out to be 21.1 µM. Also, the IC50 in the data set on SK-MEL-28 is more than 10 µM; with HepG2, more than 10 µM; in the data set on A549 it was 7.8 µM; in the data set on MCF7 it was more than 10 µM; in the data set on HCT-116 it was more than 10 µM.
Regarding `O=C(CN1C(=O)S/C(=C\c2coc3cc(Br)ccc3c2=O)C1=O)c1ccccc1`, in data set [1], the IC50 at 48 h stood at 21.1 µM. Further, the IC50 is more than 10 µM in the data set on SK-MEL-28; more than 10 µM in the data set on HepG2; 8.8 µM with A549; more than 10 µM in the data set with MCF7; more than 10 µM in the data set with HCT-116.
Turning to `COc1ccc(C(=O)CN2C(=O)S/C(=C\c3coc4ccccc4c3=O)C2=O)cc1`, the IC50 at 48 h in data set [1] was determined as 168 µM. In addition, the IC50 with SK-MEL-28 was more than 10 µM; with HepG2 it was more than 10 µM; in the data set on A549, 8.8 µM; in the data set with MCF7 it was more than 10 µM; in the data set with HCT-116, more than 10 µM.
Turning to `Cc1ccc2occ(/C=C3\SC(=O)N(CC(=O)c4ccccc4)C3=O)c(=O)c2c1`, in data set [1], the IC50 at 48 h was 13.6 µM. The IC50 in the data set with SK-MEL-28, in the data set on HepG2, with A549, with MCF7 and in the data set on HCT-116 was more than 10 µM each time.
As for `O=C(CN1C(=O)S/C(=C\c2coc3cc(Br)ccc3c2=O)C1=O)c1ccc(Cl)cc1`, the IC50 at 48 h in data set [1] amounted to 18.1 µM. In addition, the half-inhibitory concentration (IC50) is more than 10 µM with SK-MEL-28; more than 10 µM with HepG2; 8.4 µM with A549; more than 10 µM in the data set with MCF7; more than 10 µM with HCT-116.
With `Cc1ccc(C(=O)CN2C(=O)S/C(=C\c3coc4ccc(C)cc4c3=O)C2=O)cc1`, the IC50 at 48 h in data set [1] is 14.1 µM. In addition, the IC50 in the data set with SK-MEL-28 was more than 10 µM; in the data set with HepG2, more than 10 µM; with A549, 8.2 µM; in the data set on MCF7, more than 10 µM; in the data set with HCT-116, more than 10 µM.
In the case of `Cc1ccc2occ(/C=C3\SC(=O)N(CC(=O)c4ccc(F)cc4)C3=O)c(=O)c2c1`, in data set [1], the half-maximal inhibitory concentration (IC50) at 48 h came out at 15.2 µM. The IC50 with SK-MEL-28, in the data set on HepG2, with A549, with MCF7 and with HCT-116 was more than 10 µM in each case.
Turning to `O=C(CN1C(=O)S/C(=C\c2coc3cc(Br)ccc3c2=O)C1=O)c1ccc(Br)cc1`, the IC50 at 48 h in data set [1] is 23.6 µM. In addition, the IC50 in the data set on SK-MEL-28, with HepG2, in the data set on A549, with MCF7 and with HCT-116 was more than 10 µM in each case.
With `Cc1ccc2occ(/C=C3\SC(=O)N(CC(=O)c4ccc(Cl)cc4)C3=O)c(=O)c2c1`, the half-inhibitory concentration (IC50) at 48 h in data set [1] was 15.2 µM. Further, the 50% inhibitory concentration (IC50) was more than 10 µM in the data set on SK-MEL-28; more than 10 µM with HepG2; 6.3 µM in the data set with A549; 8.9 µM in the data set with MCF7; more than 10 µM with HCT-116.
`O=C(CN1C(=O)S/C(=C\c2coc3ccccc3c2=O)C1=O)c1ccccc1`: in data set [1], the IC50 at 48 h is 17.5 µM. The IC50 with SK-MEL-28, in the data set on HepG2, in the data set with A549, in the data set on MCF7 and with HCT-116 was more than 10 µM each time.
In the case of `O=C(CN1C(=O)S/C(=C\c2coc3ccc(Br)cc3c2=O)C1=O)c1ccccc1`, the IC50 at 48 h in data set [1] was 13.2 µM. In addition, the IC50 in the data set on SK-MEL-28, in the data set with HepG2, with A549, with MCF7 and in the data set on HCT-116 was more than 10 µM in each case.
Take `Cc1ccc(C(=O)CN2C(=O)S/C(=C\c3coc4cc(Br)ccc4c3=O)C2=O)cc1`: the IC50 at 48 h in data set [1] is 15.1 µM. The IC50 in the data set on SK-MEL-28 was more than 10 µM; in the data set with HepG2, more than 10 µM; in the data set on A549, 6.5 µM; in the data set with MCF7 it was 10.1 µM; in the data set with HCT-116, more than 10 µM.
For `O=C(CN1C(=O)S/C(=C\c2coc3ccccc3c2=O)C1=O)c1ccc(Cl)cc1`, in data set [1], the IC50 at 48 h amounted to 25 µM. Also, the IC50 in the data set on SK-MEL-28 was more than 10 µM; in the data set on HepG2 it was 12.3 µM; in the data set with A549 it was more than 10 µM; with MCF7, 8.7 µM; in the data set with HCT-116, more than 10 µM.
